Reference: US7157479B2, “Oxazol/thiazol-derivatives activators of the hPPAR-alpha receptor” (Glaxo Group Limited, priority 2001, dated 2007)

What was measured:
hPPAR delta = target: T1, hPPAR delta (Homo sapiens, UniProt Q03181); test: Transient transfection (transactivation) assay in CV-1 cells, hPPAR delta; type: cell-based; conditions: GAL4 chimera, SPAP reporter, read-out: EC50 nM HPPARδ
T1 construct: expressed in transfected cells; host or cells: CV-1 cells
T1 sequence (Q03181 211-439 limits assumed): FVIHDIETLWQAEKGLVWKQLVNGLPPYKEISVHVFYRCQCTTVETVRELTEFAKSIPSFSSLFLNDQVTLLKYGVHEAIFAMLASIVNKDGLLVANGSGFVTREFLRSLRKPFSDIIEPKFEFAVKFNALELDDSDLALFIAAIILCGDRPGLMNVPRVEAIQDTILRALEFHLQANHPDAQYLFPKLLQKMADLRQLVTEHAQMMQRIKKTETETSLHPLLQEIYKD
Description: (§1) Compounds were screened for functional potency in transient transfection assays in CV-1 cells for their ability to activate the PPAR subtypes (transactivation assay). A previously established chimeric receptor system was utilized to allow comparison of the relative transcriptional activity of the receptor subtypes on the same target gene and to prevent endogenous receptor activation from complicating the interpretation of results. See, for example, Lehmann, J. M.; Moore, L. B.; Smith-Oliver, T. A.; Wilkison, W. O.; Willson, T. M.; Kliewer, S. A., An antidiabetic thiazolidinedione is a high affinity ligand for peroxisome proliferator-activated receptor gamma (PPARgamma), J. Biol. Chem., 1995, 270, 12953–6. The ligand binding domains for murine and human PPAR alpha, PPAR gamma, and PPAR delta were each fused to the yeast transcription factor GAL4 DNA binding domain. CV-1 cells were transiently transfected with expression vectors for the respective PPAR chimera along with0 a reporter construct containing five copies of the GAL4 DNA binding site driving expression of secreted placental alkaline phosphatase (SPAP) and β-galactosidase. After 16 h, the medium was exchanged to DME medium supplemented with 10% delipidated fetal calf serum and the test compound at the appropriate concentration. […]

hPPAR gamma = target: T2, hPPAR gamma (Homo sapiens, UniProt P37231); test: Transient transfection (transactivation) assay in CV-1 cells, hPPAR gamma; type: cell-based; conditions: GAL4 chimera, SPAP reporter, read-out: EC50 nM HPPARy
T2 construct: expressed in transfected cells; host or cells: CV-1 cells
T2 sequence (P37231 238-503 limits assumed): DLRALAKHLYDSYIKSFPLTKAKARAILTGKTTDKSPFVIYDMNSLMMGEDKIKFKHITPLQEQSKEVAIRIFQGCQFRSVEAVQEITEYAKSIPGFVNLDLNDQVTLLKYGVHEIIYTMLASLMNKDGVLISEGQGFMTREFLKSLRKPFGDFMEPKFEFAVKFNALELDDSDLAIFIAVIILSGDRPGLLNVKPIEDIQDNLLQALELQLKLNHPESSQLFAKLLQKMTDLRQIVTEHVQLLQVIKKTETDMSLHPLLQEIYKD
Description: as §1

hPPAR alpha = target: T3, hPPAR alpha (Homo sapiens, UniProt Q07869); test: Transient transfection (transactivation) assay in CV-1 cells, hPPAR alpha; type: cell-based; conditions: GAL4 chimera, SPAP reporter, read-out: EC50 nM HPPARα
T3 construct: expressed in transfected cells; host or cells: CV-1 cells
T3 sequence (Q07869 239-466 limits assumed): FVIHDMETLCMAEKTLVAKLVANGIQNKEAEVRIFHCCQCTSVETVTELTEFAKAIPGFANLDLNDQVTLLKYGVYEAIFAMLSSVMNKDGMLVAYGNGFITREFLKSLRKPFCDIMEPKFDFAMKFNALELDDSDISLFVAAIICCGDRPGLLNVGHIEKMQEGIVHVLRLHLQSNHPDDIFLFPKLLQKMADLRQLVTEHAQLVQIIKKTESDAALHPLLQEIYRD
Description: as §1

EC50 (hPPAR delta) | EC50 (hPPAR gamma) | EC50 (hPPAR alpha) | melting point | Structure (SMILES)
8740 nM | 700 nM | 5 nM |  | CCc1ccc(-c2sc(C(=O)NCc3ccc(OC(C)(C)C(=O)O)cc3)nc2C)cc1 [Example 2, 2-methyl-2–[4-{[(4-methyl-5-[4-ethylphenyl]thiazol-2-ylcarbonyl)amino]methyl}phenoxy]propionic Acid]
 |  |  | 97 °C | CCOC(=O)C(C)(C)Oc1ccc(CNC(=O)c2nc(C)c(-c3ccc(F)cc3)s2)cc1 [Example 3, 2-methyl-2-[4-{[(4-methyl-5-[4-fluorophenyl]thiazol-2-ylcarbonyl)amino]methyl}phenoxy]propionic Acid Ethyl Ester]
10000 nM | 5880 nM | 61 nM | 122 °C | Cc1nc(C(=O)NCc2ccc(OC(C)(C)C(=O)O)cc2)sc1-c1ccc(F)cc1 [Example 4, 2-methyl-2-[4-{[(4-methyl-5-[4-fluorophenyl]thiazol-2-ylcarbonyl)amino]methyl}phenoxy]propionic Acid]
